Results: US9523109B2, “Method for enzymatically preparing peptides for use in improvement of brain function” (CALPIS CO., LTD., priority 2011, dated 2016)
Where no end group is shown, it is not given here.

What was measured:
[1] = test system: scopolamine-induced amnesia; assay: Y-shaped maze test (spontaneous alternation behavior) after scopolamine-induced brain dysfunction; format: in vivo, Male ddY mice; conditions: scopolamine 1 mg/kg s.c.
Procedure: Male ddY mice (about 7 weeks old) were used (n=15 to 75), and provided with food and water ad libitum. Asn-Ile-Pro-Pro-Leu-Thr-Gln-Thr-Pro-Val-Val-Val-Pro-Pro-Phe-Leu-Gln-Pro-Glu (SEQ ID NO: 1) was used as a test substance in amounts of 0.05 nmol/kg body weight (0.1 μg/kg body weight), 0.5 nmol/kg body weight (1 μg/kg body weight), 1.5 nmol/kg body weight (3 μg/kg body weight), 5 nmol/kg body weight (10 μg/kg body weight), 50 nmol/kg body weight (100 μg/kg body weight), and 500 nmol/kg body weight (1,000 μg/kg body weight). The test substance was administered as a single dose orally to mice 60 minutes before performing a Y-shaped maze test for evaluating spontaneous alternation behavior. Thirty minutes before performing the Y-shaped maze test, scopolamine was subcutaneously administered in an amount of 1 mg/kg body weight into the back to induce brain dysfunction (memory disorder and/or cognition disorder) in mice. In the Y-shaped maze test, as an experiment device, a Y-shaped maze was used in which the length for each arm was 40 cm; the wall height was 12 cm; the floor width was 3 cm; the upper part width was 10 cm; and three arms were connected to each other at an angle of 120°. Each mouse was placed in the end of any of the alms of the Y-shaped maze and allowed to explore freely in the maze over 8 minutes, and the sequence of the arms to which the mouse moved was recorded. The number of movements of the mouse to the arms within the measurement time was counted and used as the total number of entries; in the sequence, the combination in which three different arms were selected in succession (for example, with the three arms respectively called A, B, and C, if the sequence of the arms entered is ABCBACACB, the count is 4 inclusive of overlapping) was investigated, and the count number was used as the number of spontaneous alternation behaviors. The change in spontaneous alternation behavior (%) was calculated by dividing the number of spontaneous alternation behaviors by a number obtained by subtracting 2 from the total number of entries, and multiplying the resultant number by 100, and the percentage was used as an indicator of the spontaneous alternation behavior. […] The measured values were expressed as mean±standard error for each group. The significance of difference between the control group and the scopolamine control group was tested by Student's t-test. […]
Male ddY mice (about 7 weeks old) were used (n=15 to 45), and provided with food and water ad libitum. […] Each mouse was placed in the end of any of the arms of the Y-shaped maze and allowed to explore freely in the maze over 8 minutes, and the sequence of the arms to which the mouse moved was recorded. […]

[2] = test system: memory retention; assay: novel object recognition test for evaluating memory retention; format: in vivo, Male ddY mice; conditions: Example 6, FIG. 7; single oral dose 500 nmol/kg body weight (1,000 μg/kg) 60 min before training trial; retention trial 48 hours later
Procedure: Male ddY mice (about 7 weeks old) were used (n=14 to 15), and provided with food and water ad libitum. As a test substance, 500 nmol/kg body weight (1,000 μg/kg body weight) of Asn-Ile-Pro-Pro-Leu-Thr-Gln-Thr-Pro-Val-Val-Val-Pro-Pro-Phe-Leu-Gln-Pro-Glu (SEQ ID NO: 1) was used. The test substance was administered as a single dose orally to mice 60 minutes before performing a novel object recognition test for evaluating memory retention. In the novel object recognition test, a 30×30×30 cm box was used as an experiment device. As a conditioning operation, a mouse was placed in an experiment device in which a floorcloth was laid for 5 minutes, and allowed to explore freely in the device. A training trial was performed the day following the conditioning operation. […] Sixty minutes after orally administering the test substance or water, a mouse was placed in the experiment device for 5 minutes, and the time (second) was measured during which the mouse explored by approaching each object to be within 1 cm therefrom. […] (However, the state in which a mouse rides on an object is excluded.) The percentages of the times were determined during which two objects were explored in each of the training trial and the retention trial. The percentage (%) of the exploration time for each object was expressed as mean±standard error for each of the groups. […]

[3] = Example 5, FIG. 6, single oral dose 50 nmol/kg body weight 60 min before test

NIPPLTQTPVVVPPFLQPE [SEQ ID NO: 1]
amnesia-preventing action (change in spontaneous alternation behavior) ([1]; Example 4, FIG. 5, single oral dose 60 min before test, range 0.05 nmol/kg body weight to 500 nmol/kg body weight (0.1 to 1,000 μg/kg)): amnesia-preventing action | amnesia-preventing action (change in spontaneous alternation behavior) [1, 3]: amnesia-preventing action | memory-enhancing action (percentage of exploration time for novel object) [2]: memory-enhancing action

NIPPLTQTPVVVPPFLQPEVM [SEQ ID NO: 2]
amnesia-preventing action (change in spontaneous alternation behavior) [1, 3]: amnesia-preventing action

SWMHQPHQPLPPTVMFPPQSVL [SEQ ID NO: 3]
amnesia-preventing action (change in spontaneous alternation behavior) ([1]; Example 7, FIG. 8, single oral dose 150 nmol/kg body weight to 500 nmol/kg body weight (380 to 1,280 μg/kg)): amnesia-preventing action
